Counter-ions that a name gives are not always drawn.
Columns and labels:
Format in all cases: physicochemical
[1] = hygroscopicity at relative humidity
pH in aqueous solution = conditions: (native) pH of the aqueous solution of the salt
aqueous solubility = experiment: aqueous solubility

CN[C@H]1CC[C@@H](c2ccc(Cl)c(Cl)c2)c2ccccc21 [sertraline benzenesulfonic acid salt, Benzenesulfonic Acid Salt of Sertraline]
hygroscopicity ([1]; at 90% relative humidity): approximately 0.3%
pH in aqueous solution (pH in aqueous solution): 4.6
aqueous solubility (aqueous solubility): 900 µg/mL

CN[C@H]1CC[C@@H](c2ccc(Cl)c(Cl)c2)c2ccccc21 [sertraline fumaric acid salt, Fumaric Acid Salt of Sertraline]
hygroscopicity ([1]; at 90% relative humidity): approximately 0.3%
pH in aqueous solution (pH in aqueous solution): 3.4
aqueous solubility (aqueous solubility): 2800 µg/mL

CN[C@H]1CC[C@@H](c2ccc(Cl)c(Cl)c2)c2ccccc21 [sertraline benzoic acid salt, Benzoic Acid Salt of Sertraline]
hygroscopicity ([1]; at 100% relative humidity): approximately 0.1%
pH in aqueous solution (pH in aqueous solution): 5.2
aqueous solubility (aqueous solubility): 520 µg/mL

CN[C@H]1CC[C@@H](c2ccc(Cl)c(Cl)c2)c2ccccc21 [sertraline L-tartaric acid salt, L-Tartaric Acid Salt of Sertraline]
hygroscopicity ([1]; at 100% relative humidity): less than 0.1%
pH in aqueous solution (pH in aqueous solution): 3.0
aqueous solubility (aqueous solubility): 4800 µg/mL

CN[C@H]1CC[C@@H](c2ccc(Cl)c(Cl)c2)c2ccccc21 [sertraline (−)-camphor-10-sulfonic acid salt] [(−)-Camphor-10-sulfonic Acid Salt of Sertraline]
hygroscopicity ([1]; at 100% relative humidity): approximately 0.4%
pH in aqueous solution (pH in aqueous solution): 4.6
aqueous solubility (aqueous solubility): 1500 µg/mL

CN[C@H]1CC[C@@H](c2ccc(Cl)c(Cl)c2)c2ccccc21 [sertraline p-toluenesulfonic acid salt, P-Toluenesulfonic Acid Salt of Sertraline]
hygroscopicity ([1]; at 90% relative humidity): approximately 0.1%
pH in aqueous solution (pH in aqueous solution): 4.1
aqueous solubility (aqueous solubility): 400 µg/mL
